According to patent US20230146795A1, “ENHANCEMENT OF ANTI-TUMOR ACTIVITY OF SHP2 INHIBITOR PYRIMIDINONE IN COMBINATION WITH NOVEL CANCER MEDICINES IN CANCERS” (TAIHO PHARMACEUTICAL CO., LTD., priority 2020, published 2023):

Tests used:
SHP2 = biological target: T1, SHP2 (Homo sapiens, UniProt Q06124); assay: SHP2 biochemical assay (DiFMUP conversion); settings: 10 pM SHP2, 0.25 μM pIRS1 peptide, 50 μM DiFMUP
T1 sequence (Q06124 1-593): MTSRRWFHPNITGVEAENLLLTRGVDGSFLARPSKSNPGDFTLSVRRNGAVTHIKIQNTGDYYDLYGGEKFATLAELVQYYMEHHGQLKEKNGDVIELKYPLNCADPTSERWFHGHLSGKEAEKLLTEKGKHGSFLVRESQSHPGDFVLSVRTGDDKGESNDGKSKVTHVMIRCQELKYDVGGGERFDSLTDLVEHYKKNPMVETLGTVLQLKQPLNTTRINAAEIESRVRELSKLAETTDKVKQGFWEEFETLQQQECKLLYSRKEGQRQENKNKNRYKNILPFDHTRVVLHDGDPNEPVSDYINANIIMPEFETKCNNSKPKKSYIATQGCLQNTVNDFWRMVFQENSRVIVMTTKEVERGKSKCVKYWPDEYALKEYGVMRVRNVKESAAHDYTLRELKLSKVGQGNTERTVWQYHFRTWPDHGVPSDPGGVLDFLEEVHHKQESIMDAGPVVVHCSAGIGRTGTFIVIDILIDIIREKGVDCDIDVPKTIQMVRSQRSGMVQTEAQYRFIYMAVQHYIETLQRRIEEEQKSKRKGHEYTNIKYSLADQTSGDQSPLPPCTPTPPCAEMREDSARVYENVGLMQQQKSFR
Procedure: (1) SHP2 Biochemical Assay SHP2 Activity was Monitored by Measuring the Conversion of the Surrogate Substrate 6,8-Difluoromethylumbelliferyl Phosphate (DiEMUP) to the Fluorescent Product, 6,8-Difluoromethylumbelliferone (DiFMU).
SHP2 was pre-incubated with test compounds and the activating peptide pIRS1 (H2N-LN(pY) IDLDLV-(PEG) 8-LST(pY)ASINFQK-amide) for 30 min, prior to addition of the 6,8-difluoromethylumbelliferyl phosphate (DiEMUP), (Thermo Fisher D6567). Final assay concentrations were 10 pM SHP2, 0.25 μM pIRS1 peptide, 50 μM DiFMUP, 25 mM Bis-Tris propane, pH 7.0, 150 mM NaCl, 0.05% (v/v) Tween-20, 0.5 mM TCEP and 5% (v/v) DMSO. Rates of reaction were then measured over 30 min by monitoring fluorescence on a BMG Pherastar reader at excitation 360 nm/emission 450 nm. IC50 values were calculated in singlicate from the normalized dose-response plots using four parameter logistic curve fit. The Experiment for each compound was carried out in one time or multiple times, and the IC50 values were shown as a single value (for a compound measured in a single experiment) or an average value (for a compound measured in multiple experiments).

[1] = tested on: pERK levels in HCC827 cells; assay: Cellular pERK inhibition assay (In-Cell Western); type: cell-based; settings: Homo sapiens, relative IC50
Procedure: pERK levels were determined using the In-Cell Western assay. HCC827 cells (ATCC, Manassas, USA) were seeded into 384-well plates at a density of 1×10^4 cells/well in RPMI1640 medium supplemented with 10% FBS and incubated 24 h. Compounds were diluted first in DMSO and then into serum-free medium, before being added to cells in quadruplicate to give a final concentration of 0.2% DMSO. Plates were incubated at 37° C. for the indicated time in a humidified atmosphere of 5% CO2 in air.
Following compound treatment, cells were fixed with formalin neutral buffer solution for 20 minutes at room temperature. Plates were washed three times with 0.1% Triton-X in PBS and cells were blocked for 1 hour with Odyssey blocking buffer (LI-COR, #927-40000). […] Levels of pERK were then expressed as percent of control, using DMSO treated samples as control. The relative IC50 values were calculated in quadruplicate from the normalized dose-response plots using four parameter logistic curve fit. The Experiment for each compound was carried out in one time or multiple times, and the IC50 values were shown as a single value (for a compound measured in a single experiment) or an average value (for a compound measured in multiple experiments).

[2] = tested on: 97 cell lines harboring driver mutations in KRAS; assay: In vitro cell line screening, 3D cultures (CellTiter-Glo 3D), KRAS panel; type: cell-based, human; settings: sensitive = maximum inhibition greater than 50% relative to DMSO, max 3 μM Compound 1, 1 μM Compound 9, 120-hour incubation
Procedure: The effect of Compound 1 in combination with an ERK inhibitor, Compound 9, on 97 cell lines harboring driver mutations in KRAS (G12A, G12C, G12F, G12R, G12S, G12V, G13C, G13D, A59G, Q61H, Q61K, Q61L or A146T) was assessed using the following technique. Cells from human cancer cells lines (from commercial sources such as ATCC or ECCAC) were grown as 3D cultures by seeding cells into round-bottom ultra-low attachment 96-well tissue culture plates (Corning) followed by centrifugation. Cells were allowed to recover for 16-24 hours prior to compound treatment. Compounds or dimethyl sulfoxide (DMSO) were added at various combinations of compound concentrations in a final DMSO concentration of up to 0.5% (v/v). Following a total of 120-hour incubation, CellTiter-Glo 3D Reagent(registered trademark) (Promega) was added. Plates were incubated for 10 minutes with gentle shaking at room temperature to lyse the cells, then incubated for further 40 minutes at room temperature to stabilize luminescence signal. After mixing, the mixture was transferred to a fresh plate and luminescence was determined on EnVision plate reader (Perkin Elmer).
(§1) For both 3D and 2D assays, the combination was tested as matrix of various concentrations of Compound 1 and Compound 9. The maximum concentrations of Compound 1 and Compound 9 used were 3 μM and 1 μM, respectively. Signals were normalized to that of the average of the DMSO control wells. […] For each cell line, the maximum % inhibition values were obtained for Compound 1 alone, Compound 9 alone and the combination of both compounds. The degree of drug interaction (i.e. synergy, additivity or antagonism) was quantified for each cell line by the Bliss independence model using the Synergyfinder R package (Ref: He L. et al. (2018) Methods for High-throughput Drug Combination Screening and Synergy Scoring. In: von Stechow L. (eds) Cancer Systems Biology. Methods in Molecular Biology, vol 1711. Humana Press, New York, N.Y.). For each cell line, a single score metric, the sum of synergy and antagonism across screened drug concentrations (SUM_SYN_ANT) (Ref: Di Veroli G. Y. et al (2016) Bioinformatics 32(18):2866-2868), was calculated. Synergy was defined as a score of 21 or above.

[3] = tested on: human pancreatic cancer cell line MIA PaCa-2 (KRAS mutation); assay: Antitumor effect on MIA PaCa-2 tumor subcutaneously implanted to CB17 SCID mouse; type: in vivo
Procedure: MIA PaCa-2 cell line carries KRAS mutation.
A human pancreatic cancer line, MIA PaCa-2 (available from American Type Culture Collection), suspended in a mixture of PBS and Matrigel was subcutaneously implanted to male CB17 SCID mice at 7-10 weeks of age (Charles River UK) at 5×10^6 cells/100 μl/mouse. Tumors were measured with a pair of digital calipers, and tumor volumes (TV) were calculated by applying the formula for ellipsoid. Mice with TV of 146 to 360 mm^3 were assigned to study groups such that average TV was equal among groups.
Oral administration of Compound 1 or its vehicle, and Compound 9 or its vehicle was started on Day 1. Compound 1 was dissolved in an acidified solution of 0.5% (w/v) hydroxypropyl methylcellulose (Sigma) and administered via oral gavage at 6 or 12 mg/kg/day. Compound 9 was suspended in 20% (v/v) PEG200 (Sigma) and 0.5% (w/v) methylcellulose (Sigma) and administered via oral gavage at 50 mg/kg/day. All treatments were given once a day for 21 consecutive days, except for the combination group receiving 12 mg/kg of Compound 1 and 50 mg/kg of Compound 9, in which the animals were treated for 5 days per week for 3 weeks.
Antitumor effects were evaluated by comparing the median relative tumor volumes (RTV) between control- and treated groups. RTV was calculated by dividing TV on any test day by TV on Day 1, expressed as a percentage. T/C (%), as a measure of anti-tumor activity, was calculated by dividing median RTV values of each compound-administered group by median RTV of the control group receiving both vehicles.

[4] = tested on: 394 cell lines that do not depend on KRAS; assay: In vitro cell line screening, 2D monolayers (CellTiter-Glo), KRAS-independent panel; type: cell-based, human; settings: Non-KRAS panel, sensitive = maximum inhibition greater than 50% relative to DMSO, max 3 μM Compound 1, 1 μM Compound 9, 120-hour incubation
Procedure: (§2) Cells from human cancer cells lines (from commercial sources such as ATCC or ECCAC) were grown as 2D monolayers by seeding onto flat-bottom 96-well tissue culture plates (Corning). Cells were allowed to recover for 16-24 hours prior to compound treatment. Compounds or dimethyl sulfoxide (DMSO) were added at various combinations of compound concentrations in a final DMSO concentration of up to 0.5% (v/v). Following a total of 120-hour incubation, CellTiter-Glo reagent(registered trademark) (Promega) was added. Plates were incubated for 10 minutes with gentle shaking at room temperature to lyse the cells, then incubated for further 10 minutes at room temperature to stabilize luminescence signal. After mixing, the mixture was transferred to a fresh plate, and luminescence was determined on EnVision plate reader (Perkin Elmer).
as §1

491 cell lines = assay: In vitro cell line screening, both panels overall; type: cell-based, human; settings: Total panel, sensitive = maximum inhibition greater than 50% relative to DMSO, max 3 μM Compound 1, 1 μM Compound 9, 120-hour incubation
Procedure: as §2, with “as 3D cultures” for “as 2D monolayers”, “seeding cells into round-bottom ultra-low attachment” for “seeding onto flat-bottom”, “plates (Corning) followed by centrifugation.” for “plates (Corning).”, “CellTiter-Glo 3D Reagent(registered” for “CellTiter-Glo reagent(registered”, “further 40” for “further 10”, “fresh plate” for “fresh plate,”
as §2, §1

SMILES	IC50 (SHP2) [nM]	IC50 [1] [nM]	Number of cell lines sensitive [2]	Number of cell lines sensitive (% of total) [2] [%]	partial regression (tumor shrinkage of 50% or above), mice ([3]; Compound 9 alone 50 mg/kg/day)	T/C ([3]; Compound 9 alone 50 mg/kg/day oral, once a day, Day 18) [%]	tumor response ([3]; Compound 9 alone 50 mg/kg/day, during the treatment period)	Number of cell lines sensitive [4]	Number of cell lines sensitive (% of total) [4] [%]	Number of cell lines sensitive (491 cell lines)	Number of cell lines sensitive (% of total) (491 cell lines) [%]
CCn1cc2c(Cl)c(-c3c[nH]c4nc(N5C[C@H]6CC[C@@H]5[C@@H]6N)n(C)c(=O)c34)ccc2n1 [Compound 3, 2-((1R,4R,7R)-7-amino-2-azabicyclo[2.2.1]heptan-2-yl)-5-(4-chloro-2-ethyl-2H-indazol-5-yl)-3-methyl-3,7-dihydro-4H-pyrrolo[2,3-d]pyrimidin-4-one]	4	35									
COc1cc(F)cc([C@@H](CO)NC(=O)[C@@H](C)N2Cc3ccc(-c4nc(NC5CCOCC5)ncc4Cl)cc3C2=O)c1 [Compound 9, (2R)-2-(6-{5-chloro-2-[(oxan-4-yl)amino]pyrimidin-4-yl}-1-oxo-2,3-dihydro-1H-isoindol-2-yl)-N-[(1S)-1-(3-fluoro-5-methoxyphenyl)-2-hydroxyethyl]propanamide]			80	82.5	1 out of 8	29	tumor stasis	204	51.8	284	57.8
